# Measurements: patent US9399145B2, “Nanoscale neuromodulating platform for retina neuron activation apparatus and method” (The Board of Trustees of the University of Illinois, priority 2005, dated 2016)
# How the values were obtained:
# Assay type in all cases: cell-based, mouse
# [1] = test system: GABAARs of cerebellar PNs; test: Test for direct agonist activity on Purkinje neurons (recirculating MPC088, no exogenous GABA)
# Method: To test for direct agonist activity of MPC088 on PNs, cerebellar slices were perfused with recirculating 30 μM MPC088 (the maximal MPC088 concentration that could be reliably maintained solubilized in bicarbonate-buffered solution). MPC088 was converted to cis-dominant form by a 2-min exposure to UV light (LED, 365 nm/160 mW, Mouser, Inc., Mansfield, Tex.; LED driver, 700 mA BuckPuck DC Driver, Quadica Developments, Inc., Brantford, Ontario, Canada), before its dilution into the recirculating external solution. The same LED was then used to continuously UV-illuminate the recirculating solution for the duration of the experiment. Whole-cell voltage clamp recordings were obtained from PNs and determined the change in membrane current produced by alternating blue and UV illumination of the slice, as in the FIG. 40 experiments. […] The temporal sequence of illumination differed among the experiments (e.g., only the cell in a received multiple blue/UV exposures), but the data plotted are the amplitudes from the blue to UV transition (in the case of the cell in a, this is the blue/UV transition from the first of the three exposures). Yellow-filled data points indicate results from the experiment in a. Each data point is the average obtained from 4-10 consecutive recordings. […] Error bars represent the SEM (FIG. 42b).
# [2] = test system: AMPAR/NMDAR-mediated EPSCs; test: AMPAR/NMDAR-mediated EPSCs in hippocampal CA1 pyramidal neurons
# Method: To test whether MPC088 affects excitatory synaptic transmission, whole-cell voltage-clamp recordings were carried out in CA1 pyramidal neurons of mouse hippocampus. As in the experiments of FIG. 42, these recordings were obtained with perfusion of the slice with cis-dominant MPC088 (30 μM) under recirculation. PTX […] was also included in the external solution to block GABAARs. EPSCs were evoked by stimulating the Schaffer collaterals with a bipolar matrix microelectrode (FHC, Inc., Bowdoin, Me.), and recorded at a holding potential of +40 mV to uncover the NMDA receptor (NMDAR) component of the EPSC. Paired electrical stimuli separated by 80 ms were also presented to assess possible effects of MPC088 on short-term plasticity. Each cell was […] 20 interleaved trials in which the cell was exposed to two 0.1-s UV pulses surrounding a 1-s period of either blue light or no light (FIG. 50). […] Each trace is the average of 10 traces with stimulus and shutter artifacts blanked for clarity. The black and grey asterisks indicate the time points, respectively, for the current measurements of the AMPAR- and NMDAR-mediated components. FIG. 50b depicts summary data including that shown in a. Plotted for the blue light and no blue light conditions are the average current amplitudes measured at the peak of the first EPSC (black bars), and just prior to the second stimulus (grey bars), as indicated by the asterisks in a.
# To quantify the effects of MPC088 on AMPA receptors (AMPARs) and NMDARs, for the first EPSC of the pair, the peak current and the current just prior to the second stimulus were measured, which reflect AMPAR and NMDAR components, respectively, of the EPSC^41. […] Additionally, blue light had no significant effect on the decay of the compound current (average τ from single-exponential fitting to the decay of the second EPSC: Blue off, 131±11 ms; Blue on, 131±11 ms; p=0.89). There was also no significant effect of blue light on the paired-pulse ratio (PPR, measured as Peak(2nd EPSC)/Peak(1st EPSC): Blue off, 1.72±0.07; Blue on, 1.85±0.14; p=0.34).
# Recordings from hippocampal CA1 pyramidal neurons were obtained from 17-23 day old animals. Briefly, the hippocampus was completely removed from the brain and then sliced in 300-μm sections. Prior to recording, a cut was made with a scalpel blade between CA1 and CA3 in order to completely sever all connections between the two; this was done in order to abolish polysynaptic activity due to antidromic activation of CA3 pyramidal cells. Recordings were carried out under voltage clamp with an internal solution containing (in mM): 130 CsCl, 10 HEPES, 1 CaCl2, 2 ATP, 0.2 GTP, 10 EGTA, and 5 QX-314 Br, and pH was adjusted to 7.3 with CsOH. All data from these experiments are presented as mean±SEM.
# [3] = test system: GABAARs of cerebellar PNs; test: Whole-cell voltage clamp of cerebellar Purkinje neurons in slices, GABA-evoked currents with UV/blue light; conditions: 10 μM GABA + 30 μM MPC088 by pressure pipette
# Method: To evaluate the efficacy of MPC088 in GABAAR-expressing cells in situ, whole-cell voltage-clamp experiments were conducted on Purkinje neurons (PNs) in parasagittal slices from mouse cerebellum (Häusser et al. (1997); Smith et al. (2003)) (FIG. 40). […] The cell was flashed with UV light (1 s, shuttered from a mercury arc lamp), then blue light (1 s, from a 470 nm LED), and then again with UV light (1 s). […] The magnitude of the UV-to-blue transition was calculated as (B-UV1)/UV1; that of the blue-to-UV transition was calculated as (UV2-B)/UV2. […] For the negative control experiments (i.e., those involving exposure to vehicle or propofol alone) in which no light-evoked current was detectable, current was measured for identical epochs at the terminations of the light pulses.
# Experiments on cerebellar PNs employed acute slices obtained from cerebella of 16-30 day-old C57/BL6 mice (Charles River Laboratories). After induction of deep anesthesia with isoflurane, mice were decapitated, and the cerebellum vermis was removed and placed in an ice-cold cutting solution containing (in mM): 85 NaCl, 2.5 KCl, 0.5 CaCl2, 4 MgCl2, 1.25 NaH2PO4, 24 NaHCO3, 25 glucose, and 75 sucrose. A Leica VT1000 vibratome was used to cut 250 μm thick, sagittal slices from the cerebellar vermis. […]
structure (smiles),measurement,setting,value
"CC(C)c1cc(CCCC(=O)NCc2ccc(/N=N/c3ccc(C(=O)NCCN)cc3)cc2)cc(C(C)C)c1O [MPC088, (E)-N-(2-Aminoethyl)-4-((4-((4-(4-hydroxy-3,5-diisopropylphenyl)butanamido)methyl)phenyl)diazenyl)benzamide]",average light-evoked current change,"[1]; 30 μM recirculating, blue/UV illumination, subset of 28 of 44 cells with change >18 pA",80±13 pA
same,mode of action in cerebellar tissue,[1]; concentrations comparable to or lower than 30 μM,modulatory (endogenous GABA-dependent) rather than agonistic
same,actions on AMPAR-mediated and NMDAR-mediated EPSCs,[2]; 30 μM,negligible actions on AMPAR-mediated and NMDAR-mediated EPSCs
same,average τ of decay of the second EPSC,"[2]; 30 μM MPC088, Blue off",131 ± 11 ms
same,paired-pulse ratio (PPR),"[2]; 30 μM MPC088, Blue off",1.72±0.07
same,average τ of decay of the second EPSC,"[2]; 30 μM MPC088, Blue on",131 ± 11 ms
same,paired-pulse ratio (PPR),"[2]; 30 μM MPC088, Blue on",1.85±0.14
same,mean ratio of absolute current magnitude in response to blue→UV/UV→blue,[3],1.00±0.01
